Read-outs that look alike come from different tables or passages of the source.
Assays:
[1] = cited from earlier work
[2] = target: maltose-binding protein (MBP) (Escherichia coli, UniProt P0AEX9); design: species or system E. coli; settings: for current signal of trapped MBP on addition of the sugar: added to the cis chamber; for frequency of state 1 / frequency of state 2 / frequency of state 3: 1 μM maltose
MBP = MBP (Escherichia coli, UniProt P0AEX9); settings: read-out: Kd, previously determined value; cited from earlier work
[3] = state 1, β anomer, −80 mV, pH 7.5
[4] = state 2, α anomer, −80 mV, pH 7.5
[5] = state 3, β anomer (second binding mode), −80 mV, pH 7.5
[6] = assumption that state 3 represents MBP bound to an aldehyde intermediate
[7] = 10 μM sodium phosphate, before depletion of α-maltose
[8] = after depletion of α-maltose by 0.25 unit maltose phosphorylase
[9] = in the presence of ligand, −80 mV

For `OC[C@H]1O[C@H](O[C@H]2[C@H](O)[C@@H](O)[C@@H](O)O[C@@H]2CO)[C@H](O)[C@@H](O)[C@@H]1O` [α-maltose], the “rate constant of spontaneous interconversion between α-maltose and β-maltose” value [1] is given as ~ 0.009 min^−1.
With `OC[C@H]1O[C@H](O[C@H]2[C@H](O)[C@@H](O)[C@@H](O[C@H]3[C@H](O)[C@@H](O)[C@@H](O[C@H]4[C@H](O)[C@@H](O)C(O)O[C@@H]4CO)O[C@@H]3CO)O[C@@H]2CO)[C@H](O)[C@@H](O)[C@@H]1O` (some centres unmarked) [maltotetraose] the “current signal of trapped MBP on addition of the sugar” value (from here on “current signal of trapped MBP”) ([2]; −80 mV) was “three ligand-bound current levels similar to those of maltose and maltotriose”.
For maltotriose, the Kd (MBP) is listed as 160 to 700 nM, the “current signal of trapped MBP” value ([2]; −80 mV) is listed as “four states that were almost identical to the states seen with maltose” and the Kd ([2]; state 1, β anomer, −80 mV, 150 mM NaCl, 15 mM Tris-HCl, pH 7.5) is listed as 120 nM. The koff [2, 3] was 4.8 ± 0.3 s⁻¹, the kon [2, 3] was 40.8 ± 0.1 µM⁻¹ s⁻¹ and the “association rate of major β-anomer binding state relative to α-anomer” value ([2]; state 1 versus state 2) was “more than 3 times”. It also gave a Kd [2, 4] of 240 ± 10 nM, a koff [2, 4] of 1.6 ± 0.1 s⁻¹ and a kon [2, 4] of 6.6 ± 0.1 µM⁻¹ s⁻¹. For the same compound, the Kd [2, 5] was 380 ± 20 nM, the koff [2, 5] was 1.9 ± 0.4 s⁻¹ and the kon [2, 5] was 5.0 ± 0.2 µM⁻¹ s⁻¹.
In the case of `O=C[C@H](O)[C@@H](O)[C@H](O[C@H]1O[C@H](CO)[C@@H](O)[C@H](O)[C@H]1O)[C@H](O)CO` [aldehyde intermediate], the Kd [2, 6] is reported as 0.019 nM, the koff [2, 6] is reported as 1.3 ± 0.5 s⁻¹ and the kon [2, 6] is reported as 6.9 ± 2.8 × 10^10 M^−1s^−1.
In the case of `OC[C@H]1O[C@@H]2O[C@H]3[C@H](O)[C@@H](O)[C@@H](O[C@H]4[C@H](O)[C@@H](O)[C@@H](O[C@H]5[C@H](O)[C@@H](O)[C@@H](O[C@H]6[C@H](O)[C@@H](O)[C@@H](O[C@H]7[C@H](O)[C@@H](O)[C@@H](O[C@H]8[C@H](O)[C@@H](O)[C@@H](O[C@H]1[C@H](O)[C@H]2O)O[C@@H]8CO)O[C@@H]7CO)O[C@@H]6CO)O[C@@H]5CO)O[C@@H]4CO)O[C@@H]3CO` [β-cyclodextrin], the “current signal of trapped MBP” value ([2]; −80 mV) is reported as “one major current level similar to state 1 of maltose”.
With `OC[C@H]1O[C@H](O[C@H]2[C@H](O)[C@@H](O)[C@H](O)O[C@@H]2CO)[C@H](O)[C@@H](O)[C@@H]1O` [Maltose, maltose] the “frequency of state 1” value [2, 7] was 4.28 ± 0.57 s⁻¹, the “frequency of state 2” value [2, 7] was 0.18 ± 0.17 s⁻¹ and the “frequency of state 1” value [2, 8] was 5.59 ± 0.89 s⁻¹. For the same compound, the “frequency of state 2” value [2, 8] was 0 s⁻¹, the “frequency of state 3” value ([2]; after the depletion of α-maltose) was 0.01 ± 0.02 s⁻¹ and the “frequency of state 3” value ([2]; before the depletion of α-maltose) was 0.05 ± 0.04 s⁻¹. For the same compound, the “residual current, state 0” value [2, 9] was 56.5 ± 0.4%, the “residual current, state 1” value [2, 9] was 54.0 ± 0.4% and the “residual current, state 2” value [2, 9] was 52.0 ± 0.4%. The “residual current, state 3” value [2, 9] was 51.1 ± 0.4%.
With `OC[C@H]1O[C@@](CO)(O[C@H]2O[C@H](CO)[C@@H](O)[C@H](O)[C@H]2O)[C@@H](O)[C@@H]1O` [sucrose] the “current signal of trapped MBP” value ([2]; −80 mV) was “no signal change”.

— PMC7162534 (ACS nano, 2020)
